Values quoted from earlier work, collected in patent publication US9789076B2, “Bolus dose of hydroxycitric acid with glycerol” (GLYKON TECHNOLOGIES GROUP, LLC, priority 2014, dated 2017).
Read-outs that look alike come from different tables or passages of the source.

What was measured:
[1] = rats, oral, 30 days
[2] = system: fatty acid synthesis
[3] = 0.33 mmoles/kg twice daily (total 0.66 mmoles/kg)

SMILES | food consumption, percent of controls [1, 3] | weight gain, percent of controls [1, 3] | food consumption, percent of controls ([1]; 2.63 mmoles/kg as bolus) | weight gain, percent of controls ([1]; 2.63 mmoles/kg as bolus) | lowest effect dosage ([1]; given twice daily) | inhibition of acetate or ethanol incorporation into fatty acid synthesis [2]
O=C([O-])CC(O)(C(=O)[O-])C(O)C(=O)[O-].[Na+].[Na+].[Na+] (stereo not drawn) [trisodium hydroxycitrate] | 87% | 62% | 83% | 64% | 0.33 mmoles/kg body weight | –
O=C(O)CC(O)(C(=O)O)C(O)C(=O)O (single isomer, unassigned; (-)) [hydroxycitrate, (−)-Hydroxycitric acid] | – | – | – | – | – | no hydroxycitrate inhibition
